Laboratory results as given in ChEMBL document CHEMBL1201862, “PubChem BioAssay data set” (2004).
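The compound was tested at five concentrations on cells cultured in 96-well plates, with a 48-hour exposure period. GI50 = concentration required for 50% inhibition of growth.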 Calls of active or inactive are those of the source. No stated cut-off is given here; in the data, active = GI50 up to about 1.1 µM and inactive = higher.

Experiments:
Assay in all cases: growth of human tumour cells (NCI), 48 h
[1] = system: OVCAR-3
[2] = system: ACHN
[3] = system: NCI-H522
[4] = system: SN12C
[5] = system: HOP-62
[6] = system: Malme-3M
[7] = system: MDA-MB-435
[8] = system: TK-10
[9] = system: SW-620
[10] = system: PC-3
[11] = system: MDA-MB-231
[12] = system: K562
[13] = system: HOP-92
[14] = system: RPMI-8226
[15] = system: SR
[16] = system: SK-MEL-28
[17] = system: EKVX
[18] = system: MOLT-4
[19] = system: SK-MEL-2
[20] = system: COLO 205

Measured: GI50

CC(C)C[C@H](NC(=O)[C@H](Cc1ccccc1)NC(=O)c1cnccn1)B(O)O [BORTEZOMIB]
active: [1] < 10 nM | [2] < 10 nM | [3] < 10 nM | [4] < 10 nM | [5] < 10 nM | [6] < 10 nM | [7] < 10 nM | [8] < 10 nM | [9] < 10 nM | [10] < 10 nM | [11] < 10 nM | [12] < 10 nM | [13] < 10 nM | [14] 10 nM | [15] < 10 nM | [16] < 10 nM | [17] < 10 nM | [18] < 10 nM | [19] 10 nM | [20] < 10 nM
